Test system: Detoxification protein genes
Assay: DNA chip mRNA expression in yeast, detoxification protein genes (Table 8)
Assay type: cell-based, Saccharomyces cerevisiae S288C
Method in brief: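 Expression change after 2 h toxicant exposure (growth-inhibiting, sub-lethal) of log-phase S. cerevisiae S288C at 25° C. Oligo-dT-purified mRNA was labeled with Cy3-dUTP or Cy5-dUTP and hybridized >12 h at 65° C. to a genome-wide chip; ratio of scanned fluorescence to control.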

**Q.** With C[S+](C)[O-] [(15), dimethylsulfoxide] as the compound, how does the “The level of expressed mRNA in the presence of chemical substance/The level of expressed mRNA in the absence of chemical substance” value (yeast gene YBL064C) read?
**A.** 1.3

**Q.** And the “The level of expressed mRNA in the presence of chemical substance/The level of expressed mRNA in the absence of chemical substance” value (yeast gene YBR008C)?
**A.** 0.8

**Q.** What about the “The level of expressed mRNA in the presence of chemical substance/The level of expressed mRNA in the absence of chemical substance” value (yeast gene YBR244W) of the same compound?
**A.** 0.4

**Q.** What about the “The level of expressed mRNA in the presence of chemical substance/The level of expressed mRNA in the absence of chemical substance” value (yeast gene YBR293W) of the same compound?
**A.** 3.1

**Q.** And the “The level of expressed mRNA in the presence of chemical substance/The level of expressed mRNA in the absence of chemical substance” value (yeast gene YCR083W)?
**A.** 1.0

**Q.** What about the “The level of expressed mRNA in the presence of chemical substance/The level of expressed mRNA in the absence of chemical substance” value (yeast gene YDL100C) of the same compound?
**A.** 1.0

**Q.** And the “The level of expressed mRNA in the presence of chemical substance/The level of expressed mRNA in the absence of chemical substance” value (yeast gene YDR256C)?
**A.** 1.0

**Q.** What about the “The level of expressed mRNA in the presence of chemical substance/The level of expressed mRNA in the absence of chemical substance” value (yeast gene YDR453C) of the same compound?
**A.** 2.3

**Q.** What about the “The level of expressed mRNA in the presence of chemical substance/The level of expressed mRNA in the absence of chemical substance” value (yeast gene YDR513W) of the same compound?
**A.** 1.3

**Q.** What about the “The level of expressed mRNA in the presence of chemical substance/The level of expressed mRNA in the absence of chemical substance” value (yeast gene YDR538W) of the same compound?
**A.** 1.0

**Q.** What about the “The level of expressed mRNA in the presence of chemical substance/The level of expressed mRNA in the absence of chemical substance” value (yeast gene YER185W) of the same compound?
**A.** 1.7

**Q.** And the “The level of expressed mRNA in the presence of chemical substance/The level of expressed mRNA in the absence of chemical substance” value (yeast gene YGL013C)?
**A.** 1.0

**Q.** What about the “The level of expressed mRNA in the presence of chemical substance/The level of expressed mRNA in the absence of chemical substance” value (yeast gene YGR088W) of the same compound?
**A.** 0.7

**Q.** And the “The level of expressed mRNA in the presence of chemical substance/The level of expressed mRNA in the absence of chemical substance” value (yeast gene YGR138C)?
**A.** 4.5

**Q.** What about the “The level of expressed mRNA in the presence of chemical substance/The level of expressed mRNA in the absence of chemical substance” value (yeast gene YGR197C) of the same compound?
**A.** 1.0

**Q.** What about the “The level of expressed mRNA in the presence of chemical substance/The level of expressed mRNA in the absence of chemical substance” value (yeast gene YGR209C) of the same compound?
**A.** 1.3

**Q.** And the “The level of expressed mRNA in the presence of chemical substance/The level of expressed mRNA in the absence of chemical substance” value (yeast gene YHL040C)?
**A.** 3.4

**Q.** And the “The level of expressed mRNA in the presence of chemical substance/The level of expressed mRNA in the absence of chemical substance” value (yeast gene YHR008C)?
**A.** 1.7

**Q.** What about the “The level of expressed mRNA in the presence of chemical substance/The level of expressed mRNA in the absence of chemical substance” value (yeast gene YHR048W) of the same compound?
**A.** 0.9

**Q.** And the “The level of expressed mRNA in the presence of chemical substance/The level of expressed mRNA in the absence of chemical substance” value (yeast gene YHR053C)?
**A.** 0.3

**Q.** What about the “The level of expressed mRNA in the presence of chemical substance/The level of expressed mRNA in the absence of chemical substance” value (yeast gene YHR055C) of the same compound?
**A.** 0.5

**Q.** What about the “The level of expressed mRNA in the presence of chemical substance/The level of expressed mRNA in the absence of chemical substance” value (yeast gene YJL101C) of the same compound?
**A.** 0.5

**Q.** And the “The level of expressed mRNA in the presence of chemical substance/The level of expressed mRNA in the absence of chemical substance” value (yeast gene YJR104C)?
**A.** 1.3

**Q.** What about the “The level of expressed mRNA in the presence of chemical substance/The level of expressed mRNA in the absence of chemical substance” value (yeast gene YKL026C) of the same compound?
**A.** 0.8

**Q.** And the “The level of expressed mRNA in the presence of chemical substance/The level of expressed mRNA in the absence of chemical substance” value (yeast gene YKL064W)?
**A.** 0.7

**Q.** What about the “The level of expressed mRNA in the presence of chemical substance/The level of expressed mRNA in the absence of chemical substance” value (yeast gene YKR066C) of the same compound?
**A.** 0.6

**Q.** And the “The level of expressed mRNA in the presence of chemical substance/The level of expressed mRNA in the absence of chemical substance” value (yeast gene YLL028W)?
**A.** 3.1

**Q.** What about the “The level of expressed mRNA in the presence of chemical substance/The level of expressed mRNA in the absence of chemical substance” value (yeast gene YLR043C) of the same compound?
**A.** 0.5

**Q.** And the “The level of expressed mRNA in the presence of chemical substance/The level of expressed mRNA in the absence of chemical substance” value (yeast gene YLR046C)?
**A.** 0.8

**Q.** And the “The level of expressed mRNA in the presence of chemical substance/The level of expressed mRNA in the absence of chemical substance” value (yeast gene YML116W)?
**A.** 1.9

**Q.** What about the “The level of expressed mRNA in the presence of chemical substance/The level of expressed mRNA in the absence of chemical substance” value (yeast gene YMR038C) of the same compound?
**A.** 0.6

**Q.** What about the “The level of expressed mRNA in the presence of chemical substance/The level of expressed mRNA in the absence of chemical substance” value (yeast gene YNL241C) of the same compound?
**A.** 7.0

**Q.** What about the “The level of expressed mRNA in the presence of chemical substance/The level of expressed mRNA in the absence of chemical substance” value (yeast gene YNL259C) of the same compound?
**A.** 0.7

**Q.** And the “The level of expressed mRNA in the presence of chemical substance/The level of expressed mRNA in the absence of chemical substance” value (yeast gene YOL158C)?
**A.** 0.9

**Q.** What about the “The level of expressed mRNA in the presence of chemical substance/The level of expressed mRNA in the absence of chemical substance” value (yeast gene YOR153W) of the same compound?
**A.** 3.6

**Q.** What about the “The level of expressed mRNA in the presence of chemical substance/The level of expressed mRNA in the absence of chemical substance” value (yeast gene YOR251C) of the same compound?
**A.** 0.6

**Q.** What about the “The level of expressed mRNA in the presence of chemical substance/The level of expressed mRNA in the absence of chemical substance” value (yeast gene YOR273C) of the same compound?
**A.** 0.8

**Q.** What about the “The level of expressed mRNA in the presence of chemical substance/The level of expressed mRNA in the absence of chemical substance” value (yeast gene YPR200C) of the same compound?
**A.** 0.7

— patent US8192962B2, “Processes for detecting toxic substances” (Daikin Industries, Ltd., priority 2001, dated 2012)
